Measured values as given in the supplement of paper PMC8617591.

Experiments:
[1] = tested on: Mycobacterium tuberculosis Erdman (autoluminescent); experiment: GRinf, maximum normalised growth rate inhibition (three-drug combination) (unitless (-1 to 1)); higher = less effect (negative = killing)
Method: (§1)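 DiaMOND equipotent three-drug combination dose responses (10 doses, 1.5- or 2-fold spacing, centred on IC90) against autoluminescent M. tuberculosis Erdman in 8 in vitro models. Read-out is OD600, or luminescence for the intracellular and dormancy models, normalised to untreated wells. Hill-fit Einf, AUC25 and GRinf are potency metrics; FIC50 and FIC90 are total Loewe fractional inhibitory concentrations as log2 (negative = synergy).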

[2] = tested on: Mycobacterium tuberculosis Erdman (autoluminescent); experiment: Einf, fitted maximum growth inhibition of three-drug combination (fraction); higher = stronger maximal inhibition
Method: as §1

[3] = tested on: Mycobacterium tuberculosis Erdman (autoluminescent); experiment: AUC25, normalised area under dose response up to IC25 (three-drug combination) (fraction (0-1)); higher = more potent at low dose
Method: as §1

[4] = tested on: Mycobacterium tuberculosis Erdman (autoluminescent); experiment: total FIC50 (Loewe) at 50% inhibition, three-drug combination (log2); higher = more antagonistic
Method: as §1

[5] = tested on: Mycobacterium tuberculosis Erdman (autoluminescent); experiment: total FIC90 (Loewe) at 90% inhibition, three-drug combination (log2); higher = more antagonistic
Method: as §1

CC(C)/N=c1\cc2n(-c3ccc(Cl)cc3)c3ccccc3nc-2cc1Nc1ccc(Cl)cc1 [clofazimine] + CC(=O)NC[C@H]1CN(c2ccc(N3CCOCC3)c(F)c2)C(=O)O1 [linezolid] + CO[C@H]1/C=C/O[C@@]2(C)Oc3c(C)c(O)c4c(O)c(c(/C=N/N5CCN(C6CCCC6)CC5)c(O)c4c3C2=O)NC(=O)/C(C)=C\C=C\[C@H](C)[C@H](O)[C@@H](C)[C@@H](O)[C@@H](C)[C@H](OC(C)=O)[C@@H]1C [rifapentine]
Settings	AUC25, [3]	Einf, [2]	GRinf, [1]	total FIC50, [4]	total FIC90, [5]
in vitro model: acidic pH 5.7, time point: constant (~7 days, model-specific)	0.0854	0.874	-0.12	0.564	–
in vitro model: acidic pH 5.7, time point: terminal (~4-5 doublings, model-specific)	0.0814	0.98	-0.151	0.455	0.39
in vitro model: intracellular J774, time point: constant = terminal	–	0.926	-0.19	–	-0.239

Settings	AUC25, [3]	Einf, [2]	GRinf, [1]	total FIC50, [4]	total FIC90, [5]
in vitro model: butyrate, time point: constant (~7 days, model-specific)	0.0929	0.918	-0.00889	0.328	1.2
in vitro model: butyrate, time point: terminal (~4-5 doublings, model-specific)	0.0457	0.943	0.0319	0.369	-0.292
in vitro model: cholesterol 0.05 mM, time point: constant (~7 days, model-specific)	0.126	0.731	-0.0827	-0.42	–
in vitro model: cholesterol 0.05 mM, time point: terminal (~4-5 doublings, model-specific)	0.136	0.942	-0.212	0.236	0.563
in vitro model: cholesterol-high 0.2 mM, time point: constant (~7 days, model-specific)	0.114	0.928	-0.916	0.312	1.27
in vitro model: cholesterol-high 0.2 mM, time point: terminal (~4-5 doublings, model-specific)	0.124	1	-0.975	0.111	0.601
in vitro model: dormancy (butyrate + nitrate, low O2), time point: constant (~7 days, model-specific)	0.0702	0.914	0.025	1.42	1.23
in vitro model: dormancy (butyrate + nitrate, low O2), time point: terminal (~4-5 doublings, model-specific)	0.046	0.99	-0.23	1.03	0.905
in vitro model: standard 7H9 glycerol, time point: constant = terminal	0.105	0.945	0.00644	0.0429	0.805
in vitro model: valerate, time point: constant (~7 days, model-specific)	0.113	0.883	-0.112	0.974	–
in vitro model: valerate, time point: terminal (~4-5 doublings, model-specific)	0.0863	0.95	-0.00893	0.608	1.24
